Laboratory results reported in patent publication US20260077071A1, “Targeted Delivery of Theranostic Agents” (Peter MacCallum Cancer Institute, priority 2022, published 2026).
pIC50: −log10 of the molar value. Read-outs that look alike come from different tables or passages of the source. Square brackets hold non-standard residues; d marks the D form. Peptide text beside a SMILES is read from it. Phe(3,4,5-F3) = N[C@@H](Cc1cc(F)c(F)c(F)c1)C(=O)O; Phe(F5) = N[C@@H](Cc1c(F)c(F)c(F)c(F)c1F)C(=O)O; Phe(3,4-F2) = N[C@@H](Cc1ccc(F)c(F)c1)C(=O)O; Phe(4-NH2) = Nc1ccc(C[C@H](N)C(=O)O)cc1; Phe(4-F) = N[C@@H](Cc1ccc(F)cc1)C(=O)O; 1Nal = N[C@@H](Cc1cccc2ccccc12)C(=O)O; 2Nal = N[C@@H](Cc1ccc2ccccc2c1)C(=O)O; NMeNle = CCCC[C@H](NC)C(=O)O; Sar = CNCC(=O)O

Target: T1, human full-length CCK-2 receptor (Homo sapiens, UniProt P32239)
T1 construct: stably transfected to over-express the human full-length CCK-2 receptor (A431-CCK-2R); expressed in transfected cells
T1 sequence (P32239 1-447): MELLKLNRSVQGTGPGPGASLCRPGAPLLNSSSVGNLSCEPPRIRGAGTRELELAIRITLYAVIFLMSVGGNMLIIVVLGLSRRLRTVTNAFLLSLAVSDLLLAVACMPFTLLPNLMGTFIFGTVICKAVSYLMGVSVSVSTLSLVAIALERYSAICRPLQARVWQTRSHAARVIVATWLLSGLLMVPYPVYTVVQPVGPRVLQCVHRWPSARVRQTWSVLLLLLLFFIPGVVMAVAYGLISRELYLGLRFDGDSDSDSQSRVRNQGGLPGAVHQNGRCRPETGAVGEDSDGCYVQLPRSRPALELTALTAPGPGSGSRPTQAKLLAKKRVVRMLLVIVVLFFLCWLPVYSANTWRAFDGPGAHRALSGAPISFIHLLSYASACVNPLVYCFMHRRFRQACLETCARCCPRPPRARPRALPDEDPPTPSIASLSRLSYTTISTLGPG
Experiment: Competitive ligand binding against [^177Lu]Lu-DOTA-CP04 in A431-CCK-2R cells
Settings: for loss of binding affinity / activity: D-Ala analogue versus baseline comparative example-1; for pIC50: read-out: IC50; for decrease in affinity for the CCK-2 receptor: free peptide versus its linker/metal-complex (DOTA) form
Experimental: CCK-2 receptor binding experiments were conducted using A431 (human epidermoid carcinoma) cells stably transfected to over-express the human full-length CCK-2 receptor (A431-CCK-2R). As a negative control, A431 cells stably transfected with an empty vector were analysed simultaneously (A431-EV). A431 cells were maintained in DMEM (Gibco, Australia) media supplemented with 10% foetal calf serum and 250 μg/mL G418 as described previously (Aloj L, et al., J Nucl Med., 2004, Mar; 45(3), 485-94). The affinity of peptides for the CCK-2R was evaluated using competitive binding assays against [^177Lu]Lu-DOTA-CP04 in A431-CCK-2R cells. Briefly, 48 h before the experiment cells were plated at a density of 650,000 cells per well in 6 well plates. On the day of the experiment the peptides were diluted in DMEM supplemented with 1% foetal calf serum to at least 7 different concentrations (0-400 nM) and approximately 50,000 cpm of [^177Lu]Lu-DOTA-CP04 was added to each dilution. Cells were washed twice in ice-cold binding buffer (DMEM supplemented with 1% foetal calf serum) and resuspended in 1.5 mL of the pre-prepared compound mix before being incubated at 37° C. for 1 h. Post-incubation the media was removed and kept for analysis (unbound fraction) and the cells were washed twice in ice-cold binding buffer, which was pooled with the unbound fraction. Finally, 1 M NaOH was added to the cells and allowed to incubate for 5 min before lysates were collected (bound fraction). A small volume of lysate was kept aside to determine protein concentration using the Pierce® BCA protein assay kit (Thermo Fisher, Australia). All samples were analysed using the Perkin Elmer 2480 Wizard2™ gamma counter (PerkinElmer, Massachusetts, USA) and were normalised according to protein concentration. Half-maximal inhibitory concentrations (IC50) were determined using nonlinear regression calculated using GraphPad Prism Software (GraphPad Software, California, USA).
The compounds were evaluated for their ability to disrupt the binding between CCK-2 receptor (CCK-2R) and [^177Lu]Lu-DOTA-CP04 using the methodology described above and compared to comparative example-2 (FIG. 2; Table 5).

[1] = D-Ala substituted peptides (Table 2), against [^177Lu]Lu-DOTA-CP04 in A431-CCK-2R cells
[2] = substituted-phenylalanine peptides based on Cmp ex-1 (Table 3)

Compound	loss of binding affinity / activity	pIC50 [1]	pIC50 [2]	other results
CCCC[C@@H](C(=O)N[C@@H](CC(=O)O)C(=O)N[C@@H](Cc1cccc2ccccc12)C(N)=O)N(C)C(=O)[C@H](Cc1c[nH]c2ccccc12)NC(=O)CN(C)C(=O)[C@H](Cc1ccc(O)cc1)NC(=O)[C@H](C)NC(=O)[C@@H](CCC(=O)O)NC(=O)[C@@H](CCC(=O)O)NC(=O)[C@@H](CCC(=O)O)NC(=O)[C@@H](CCC(=O)O)NC(=O)[C@@H](C)NC(=O)[C@H](N)CCC(=O)O [B] (H-[dE][dA][dE][dE][dE][dE]AY[Sar]W[NMeNle]D[1Nal]-NH2)	approx. 5 fold	8.91	–	–
CSCC[C@H](NC(=O)[C@H](Cc1c[nH]c2ccccc12)NC(=O)CNC(=O)[C@H](Cc1ccc(O)cc1)NC(=O)[C@H](C)NC(=O)[C@@H](CCC(=O)O)NC(=O)[C@@H](CCC(=O)O)NC(=O)[C@@H](CCC(=O)O)NC(=O)[C@@H](CCC(=O)O)NC(=O)[C@@H](CCC(=O)O)NC(=O)[C@@H](CCC(=O)O)NC(=O)CN1CCN(CC(=O)O)CCN(CC(=O)O)CCN(CC(=O)O)CC1)C(=O)N[C@@H](CC(=O)O)C(=O)N[C@@H](Cc1ccccc1)C(N)=O [CP04, reference compound]	–	–	–	decrease in affinity for the CCK-2 receptor: greater than 3 fold
CCCC[C@@H](C(=O)N[C@@H](CC(=O)O)C(=O)N[C@@H](Cc1cccc2ccccc12)C(N)=O)N(C)C(=O)[C@H](Cc1c[nH]c2ccccc12)NC(=O)CN(C)C(=O)[C@H](Cc1ccc(O)cc1)NC(=O)[C@H](C)NC(=O)[C@@H](CCC(=O)O)NC(=O)[C@@H](CCC(=O)O)NC(=O)[C@@H](CCC(=O)O)NC(=O)[C@@H](CCC(=O)O)NC(=O)[C@@H](CCC(=O)O)NC(=O)[C@H](N)CCC(=O)O [Cmp ex-1, reference compound] (H-[dE][dE][dE][dE][dE][dE]AY[Sar]W[NMeNle]D[1Nal]-NH2; N-terminus assumed)	–	9.50	–	decrease in affinity for the CCK-2 receptor: 5 fold
CCCC[C@@H](C(=O)N[C@@H](CC(=O)O)C(=O)N[C@@H](Cc1cccc2ccccc12)C(N)=O)N(C)C(=O)[C@H](Cc1c[nH]c2ccccc12)NC(=O)CN(C)C(=O)[C@H](Cc1ccc(O)cc1)NC(=O)[C@H](C)NC(=O)[C@@H](CCC(=O)O)NC(=O)[C@@H](CCC(=O)O)NC(=O)[C@@H](C)NC(=O)[C@@H](CCC(=O)O)NC(=O)[C@@H](CCC(=O)O)NC(=O)[C@H](N)CCC(=O)O [D] (H-[dE][dE][dE][dA][dE][dE]AY[Sar]W[NMeNle]D[1Nal]-NH2)	approx. 5 fold	8.79	–	–
CCCC[C@@H](C(=O)N[C@@H](CC(=O)O)C(=O)N[C@@H](Cc1cccc2ccccc12)C(N)=O)N(C)C(=O)[C@H](Cc1c[nH]c2ccccc12)NC(=O)CN(C)C(=O)[C@H](Cc1ccc(O)cc1)NC(=O)[C@H](C)NC(=O)[C@@H](CCC(=O)O)NC(=O)[C@@H](C)NC(=O)[C@@H](CCC(=O)O)NC(=O)[C@@H](CCC(=O)O)NC(=O)[C@@H](CCC(=O)O)NC(=O)[C@H](N)CCC(=O)O [E] (H-[dE][dE][dE][dE][dA][dE]AY[Sar]W[NMeNle]D[1Nal]-NH2)	equivalent loss of activity	–	–	–
CCCC[C@@H](C(=O)N[C@@H](CC(=O)O)C(=O)N[C@@H](Cc1cccc2ccccc12)C(N)=O)N(C)C(=O)[C@H](Cc1c[nH]c2ccccc12)NC(=O)CN(C)C(=O)[C@H](Cc1ccc(O)cc1)NC(=O)[C@H](C)NC(=O)[C@@H](C)NC(=O)[C@@H](CCC(=O)O)NC(=O)[C@@H](CCC(=O)O)NC(=O)[C@@H](CCC(=O)O)NC(=O)[C@@H](CCC(=O)O)NC(=O)[C@H](N)CCC(=O)O [F] (H-[dE][dE][dE][dE][dE][dA]AY[Sar]W[NMeNle]D[1Nal]-NH2)	approx. 5 fold	8.79	–	–
CCCC[C@@H](C(=O)N[C@@H](CC(=O)O)C(=O)N[C@@H](Cc1ccc(F)cc1)C(N)=O)N(C)C(=O)[C@H](Cc1c[nH]c2ccccc12)NC(=O)CN(C)C(=O)[C@H](Cc1ccc(O)cc1)NC(=O)[C@H](C)NC(=O)[C@@H](CCC(=O)O)NC(=O)[C@@H](CCC(=O)O)NC(=O)[C@@H](CCC(=O)O)NC(=O)[C@@H](CCC(=O)O)NC(=O)[C@@H](CCC(=O)O)NC(=O)[C@H](N)CCC(=O)O [G] (H-[dE][dE][dE][dE][dE][dE]AY[Sar]W[NMeNle]D[Phe(4-F)]-NH2)	–	–	9.04	–
CCCC[C@@H](C(=O)N[C@@H](CC(=O)O)C(=O)N[C@@H](Cc1ccc(F)c(F)c1)C(N)=O)N(C)C(=O)[C@H](Cc1c[nH]c2ccccc12)NC(=O)CN(C)C(=O)[C@H](Cc1ccc(O)cc1)NC(=O)[C@H](C)NC(=O)[C@@H](CCC(=O)O)NC(=O)[C@@H](CCC(=O)O)NC(=O)[C@@H](CCC(=O)O)NC(=O)[C@@H](CCC(=O)O)NC(=O)[C@@H](CCC(=O)O)NC(=O)[C@H](N)CCC(=O)O [H] (H-[dE][dE][dE][dE][dE][dE]AY[Sar]W[NMeNle]D[Phe(3,4-F2)]-NH2)	–	–	9.19	–
CCCC[C@@H](C(=O)N[C@@H](CC(=O)O)C(=O)N[C@@H](Cc1cc(F)c(F)c(F)c1)C(N)=O)N(C)C(=O)[C@H](Cc1c[nH]c2ccccc12)NC(=O)CN(C)C(=O)[C@H](Cc1ccc(O)cc1)NC(=O)[C@H](C)NC(=O)[C@@H](CCC(=O)O)NC(=O)[C@@H](CCC(=O)O)NC(=O)[C@@H](CCC(=O)O)NC(=O)[C@@H](CCC(=O)O)NC(=O)[C@@H](CCC(=O)O)NC(=O)[C@H](N)CCC(=O)O [I] (H-[dE][dE][dE][dE][dE][dE]AY[Sar]W[NMeNle]D[Phe(3,4,5-F3)]-NH2)	–	–	9.59	–
CCCC[C@@H](C(=O)N[C@@H](CC(=O)O)C(=O)N[C@@H](Cc1c(F)c(F)c(F)c(F)c1F)C(N)=O)N(C)C(=O)[C@H](Cc1c[nH]c2ccccc12)NC(=O)CN(C)C(=O)[C@H](Cc1ccc(O)cc1)NC(=O)[C@H](C)NC(=O)[C@@H](CCC(=O)O)NC(=O)[C@@H](CCC(=O)O)NC(=O)[C@@H](CCC(=O)O)NC(=O)[C@@H](CCC(=O)O)NC(=O)[C@@H](CCC(=O)O)NC(=O)[C@H](N)CCC(=O)O [J] (H-[dE][dE][dE][dE][dE][dE]AY[Sar]W[NMeNle]D[Phe(F5)]-NH2; N-terminus assumed)	–	–	8.72	–
CCCC[C@@H](C(=O)N[C@@H](CC(=O)O)C(=O)N[C@@H](Cc1ccc(N)cc1)C(N)=O)N(C)C(=O)[C@H](Cc1c[nH]c2ccccc12)NC(=O)CN(C)C(=O)[C@H](Cc1ccc(O)cc1)NC(=O)[C@H](C)NC(=O)[C@@H](CCC(=O)O)NC(=O)[C@@H](CCC(=O)O)NC(=O)[C@@H](CCC(=O)O)NC(=O)[C@@H](CCC(=O)O)NC(=O)[C@@H](CCC(=O)O)NC(=O)[C@H](N)CCC(=O)O [K] (H-[dE][dE][dE][dE][dE][dE]AY[Sar]W[NMeNle]D[Phe(4-NH2)]-NH2; N-terminus assumed)	–	–	9.28	–
CCCC[C@@H](C(=O)N[C@@H](CC(=O)O)C(=O)N[C@@H](Cc1ccc2ccccc2c1)C(N)=O)N(C)C(=O)[C@H](Cc1c[nH]c2ccccc12)NC(=O)CN(C)C(=O)[C@H](Cc1ccc(O)cc1)NC(=O)[C@H](C)NC(=O)[C@@H](CCC(=O)O)NC(=O)[C@@H](CCC(=O)O)NC(=O)[C@@H](CCC(=O)O)NC(=O)[C@@H](CCC(=O)O)NC(=O)[C@@H](CCC(=O)O)NC(=O)[C@H](N)CCC(=O)O [L] (H-[dE][dE][dE][dE][dE][dE]AY[Sar]W[NMeNle]D[2Nal]-NH2; N-terminus assumed)	–	–	9.22	–
